Patent US20250214925A1, “CATIONIC LIPID, LIPOSOME, LIPID NANOPARTICLE, AND USE” (CARCELL BIOPHARMA LTD., priority 2022, published 2025)

Assays:
mice [1] = assay: In vivo delivery of Ffluc mRNA LNP in mice, intravenous administration, luminescence relative to MC3; set-up: species or system mice (female Balb/C); details: fold change in luminescence intensity relative to MC3; 0.06 mg/kg tail vein; 6 h after injection
Procedure, shortened: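 Female Balb/C mice (18-22 g, 6-8 weeks, n=5) received Ffluc mRNA LNP at 0.06 mg/kg by tail vein in 50 mM TBS pH 7.4. Six hours later, intraperitoneal D-luciferin was given and whole-body luminescence imaged, with each lipid reported as fold change relative to MC3 LNP.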

[2] = mRNA encapsulation efficiency of LNP by Ribogreen assay; assay type: physicochemical; details: LNP: 50% cationic lipid, 38.5% cholesterol, 10% DSPC, 1.5% DMG-PEG2000; Ffluc mRNA
Procedure, shortened: (§1)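 LNPs of cationic lipid/cholesterol/DSPC/DMG-PEG2000 at 50/38.5/10/1.5 mol% in ethanol, mixed with Ffluc mRNA at 0.2 mg/mL in 10 mM pH 4.0 citrate via T-mixer at 40 mL/min. Dialyzed overnight against 50 mM Tris-buffered saline pH 7.4 and sieved; PDI by dynamic light scattering, encapsulation by Ribogreen.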

[3] = LNP size and PDI by dynamic laser light scattering; assay type: physicochemical; details: LNP: 50% cationic lipid, 38.5% cholesterol, 10% DSPC, 1.5% DMG-PEG2000; Ffluc mRNA
Procedure, shortened: as §1

mice [4] = assay: In vivo delivery of Ffluc mRNA LNP in mice, intramuscular administration, luminescence relative to MC3; set-up: species or system mice (female Balb/C); details: fold change in luminescence intensity relative to MC3; 50 μL of 0.1 mg/mL mRNA LNP into right thigh; 6 h after injection
Experimental: The prepared encapsulation solution was applied to mice in the following manner, and its delivery efficiency in mice was tested. Among them, DLin-MC3-DMA (MC3) was a cationic liposome for delivering small nucleic acids that was approved by the FDA for marketing in 2018, which has high nucleic acid drug delivery efficiency and biosafety, and was usually used as the industry gold standard in the screening process of cationic lipids. In the evaluation of mice experiments, the ratio of nucleic acid delivery efficiency normalized to MC3 was greater than 0.1, which was considered to be a cationic lipid with high delivery efficiency.
The LNP solution was diluted with 50 mM TBS, pH 7.4 to a concentration of 0.1 mg/mL mRNA.
2. The mice involved in this study were female Balb/C, weighing 18-22 g, 6-8 weeks old, with 5 mice in each group.
3. The dosing solution was kept at 4° C. prior to injection.
4. 50 μL of LNP solution was injected into the right thigh of the mice.
5. The mice were injected intraperitoneally with 200 μL of 1.5 mg/mL D-luciferin solution 6 h after injection.
6. The in vivo luminescence images of the mice were obtained using the IVIS system (Aniview).
7. The luminescence intensity of each mice was measured using Aniview software.
8. MC3 lipid nanoparticles were used as a positive control. The in vivo efficacy of each cationic lipid tested was recorded as the fold change in luminescence intensity relative to MC3 (ratio normalized to MC3).

Compound	In Vivo Efficacy Normalized To Mc3 In Mice (Intravenous Injection) (mice [1])	Encapsulation Rate [2] [%]	PDI [3]	Size (nm) [3] [nm]	In Vivo Efficacy Normalized To Mc3 In Mice (Intramuscular Injection) (mice [4])
CCCCCCCCCC/C(=C\C(=O)OCCCCN(CCCO)CCCCOC(=O)/C=C(/CCCCC)CCCCCCCCCC)CCCCC [CPL-026, ((3-hydroxypropyl)azanediyl)bis(butane-4,1-diyl) (2Z,2′Z)-bis(3-pentyltridec-2-enoate)]	2.51	95	0.2143	71.34	0.92
CCCCCCCC/C(=C/C(=O)OCCCCCCN(CCCO)CCCCCCOC(=O)/C=C(\CCCCC)CCCCCCCC)CCCCC [CPL-069-01, ((3-hydroxypropyl)azanediyl)bis(hexane-6,1-diyl) (2E,2′E)-bis(3-pentylundec-2-enoate)]	2.70	97	0.126	84.59	1.72
CCCCCCCC/C(=C/C(=O)OCCCCCCCCCN(CCCO)CCCCCCCCCOC(=O)/C=C(\CCC)CCCCCCCC)CCC [CPL-127, ((3-hydroxypropyl)azanediyl)bis(nonane-9,1-diyl) (2E,2′E)-bis(3-propylundec-2-enoate)]	2.54	92	0.0486	94.43	2.37
CCCCCCCCCC/C(=C\C(=O)OCCCCCCCCCN(CCCO)CCCCCCCCCOC(=O)/C=C(\CCCCC)CCCCCCCCCC)CCCCC [CPL-136]	2.81	98	0.2	92.9	1.61
CCCCCC/C(=C/C(=O)OCCCCCCCCN(CCCO)CCCCCCCCOC(=O)/C=C(\CCCC)CCCCCC)CCCC [CPL-456-01, ((3-hydroxypropyl)azanediyl)bis(octane-8,1-diyl) (2E,2′E)-bis(3-butylnon-2-enoate)]	7.36	85	0.1225	70.36	5.51
CCCCCCCCCC/C(=C/C(=O)OCCCCCCN(CCCO)CCCCCCOC(=O)/C=C(\CCCC)CCCCCCCCCC)CCCC [CPL-066, ((3-hydroxypropyl)azanediyl)bis(hexane-6,1-diyl) (2E,2′E)-bis(3-butyl-2-tridecenoate)]	1.95	98	0.19	87.2	4.04
CCCCCCC/C(=C/C(=O)OCCCCCCCN(CCCO)CCCCCCCOC(=O)/C=C(\CCCC)CCCCCCC)CCCC [CPL-096, ((3-hydroxypropyl)azanediyl)bis(heptane-7,1-diyl)(2E,2′E)-bis(3-butyldec-2-enoate)]	2.06	95	0.1973	71.62	2.59
CCCCC/C=C\C/C=C\CCCCCCCC(=O)OCC(COC(=O)/C=C(\CCCC)CCCCCCCC)COC(=O)OCC1CCN(C)C1 (centres unmarked) [CPL-329, 3-(((E)-3-butylundec-2-enoyl)oxy)-2-(((((1-methylpyrrolidin-3-yl)methoxy)carbonyl)oxy)methyl)propyl(9Z,12Z)-octadeca-9,12-dienoate]	0.33	97	0.0596	75.57	–
CCCCC/C=C\C/C=C\CCCCCCCC(=O)OCC(COC(=O)/C=C(\CCCCCCC)CCCCCCCC)COC(=O)OCCCCN(C)C (centres unmarked) [CPL-252]	0.34	98	0.1369	86.5	–
CCCCC/C=C\C/C=C\CCCCCCCC(=O)OCC(COC(=O)/C=C(\CCCCCC)CCCCCCCC)COC(=O)OCCC1CCN(C)CC1 (centres unmarked) [CPL-292, 3-(((E)-3-hexylundec-2-enoyl)oxy)-2-((((2-(1-methylpiperidin-4-yl)ethoxy)carbonyl)oxy)methyl)propyl(9Z,12Z)-octadeca-9,12-dienoate]	0.27	97	0.1816	90.31	–
CCCCC/C=C\C/C=C\CCCCCCCC(=O)OCC(COC(=O)/C=C(\CCCCC)CCCCCCCC)COC(=O)OCC1CCCN(C)C1 (centres unmarked) [CPL-377, 3-((((1-methylpiperidin-3-yl)methoxy)carbonyl)oxy)-2-((((E)-3-pentylundec-2-enoyl)oxy)methyl)propyl(9Z,12Z)-octadeca-9,12-dienoate]	0.45	94	0.1248	88.31	–
CCCCC/C=C\C/C=C\CCCCCCCC(=O)OCC(COC(=O)/C=C(\CCCCC)CCCCCC)COC(=O)OCCCN(CC)CC (centres unmarked) [CPL-266, 3-(((3-(diethylamino)propoxy)carbonyl)oxy)-2-((((E)-3-pentylnon-2-enoyl)oxy)methyl)propyl(9Z,12Z)-octadeca-9,12-dienoate]	0.72	97	0.0481	68.11	–
CCCCC/C=C\C/C=C\CCCCCCCC(=O)OCC(COC(=O)/C=C(\CCCCCC)CCCCCCC)COC(=O)OCC1CCN(CC)CC1 (centres unmarked) [CPL-449, 3-((((1-ethylpiperidin-4-yl)methoxy)carbonyl)oxy)-2-((((E)-3-hexyldec-2-enoyl)oxy)methyl)propyl(9Z,12Z)-octadeca-9,12-dienoate]	0.49	97	0.0875	73.57	–
CCCCC/C=C\C/C=C\CCCCCCCC(=O)OCC(COC(=O)C=C(CCCCCCCCCC)CCCCCCCCCC)COC(=O)OCC1CCN(CC)CC1 (centres unmarked) [CPL-454, 3-((3-decyltridec-2-enoyl)oxy)-2-(((((1-ethylpiperidin-4-yl)methoxy)carbonyl)oxy)methyl)propyl(9Z,12Z)-octadeca-9,12-dienoate]	0.88	99	0.1315	83.51	–
CCCCC/C=C\C/C=C\CCCCCCCC(=O)OCC(COC(=O)/C=C(\CCCCCCC)CCCCCCCCCC)COC(=O)OCCCN1CCN(C)CC1 (centres unmarked) [CPL-407, 3-(((E)-3-heptyltridec-2-enoyl)oxy)-2-((((3-(4-methylpiperazin-1-yl)propoxy)carbonyl)oxy)methyl)propyl(9Z,12Z)-octadeca-9,12-dienoate]	0.21	97	0.0562	98.86	–
CCCCCCC(=CC(=O)OCCCCCN(CCCO)CCCCCOC(=O)C=C(CCCCCC)CCCCCC)CCCCCC [CPL-049, ((3-hydroxypropyl)azanediyl)bis(pentane-5,1-diyl)(2E,2′E)-bis(3-hexylnon-2-enoate)]	1.88	90	0.1651	101.6	–
